This is an account of results in patent publication US8471005B2 (Cephalon, Inc., priority 2008, dated 2013).

Molecules are shown by their SMILES. Some results are limits rather than exact numbers.

The target in one experiment is T1, ALK (Homo sapiens, UniProt Q9UM73).
T1 construct: host or cells: baculovirus expression system
Description: ALK Kinase Assay (ELISA/TRF, PLC-γ substrate). Format: biochemical. The conditions noted are these: ALK kinase inhibition, 1 μM ATP; read-out: ALK Potency. Put shortly: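 PLC-γ coat 10 μg/mL in TBS; ALK 30 ng/ml added to start; 37° C, 15 min; Eu-N1 PT66 antibody detection (TRF). IC50: % inhibition vs log10 [cpd], variable-slope sigmoidal fit.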
(In an ELISA, binding on a coated surface is turned into a signal by an enzyme label.)

In the next experiment the target is T2, JAK2 (Homo sapiens, UniProt O60674).
T2 construct: host or cells: baculovirus expression system
T2 sequence (O60674 whole entry): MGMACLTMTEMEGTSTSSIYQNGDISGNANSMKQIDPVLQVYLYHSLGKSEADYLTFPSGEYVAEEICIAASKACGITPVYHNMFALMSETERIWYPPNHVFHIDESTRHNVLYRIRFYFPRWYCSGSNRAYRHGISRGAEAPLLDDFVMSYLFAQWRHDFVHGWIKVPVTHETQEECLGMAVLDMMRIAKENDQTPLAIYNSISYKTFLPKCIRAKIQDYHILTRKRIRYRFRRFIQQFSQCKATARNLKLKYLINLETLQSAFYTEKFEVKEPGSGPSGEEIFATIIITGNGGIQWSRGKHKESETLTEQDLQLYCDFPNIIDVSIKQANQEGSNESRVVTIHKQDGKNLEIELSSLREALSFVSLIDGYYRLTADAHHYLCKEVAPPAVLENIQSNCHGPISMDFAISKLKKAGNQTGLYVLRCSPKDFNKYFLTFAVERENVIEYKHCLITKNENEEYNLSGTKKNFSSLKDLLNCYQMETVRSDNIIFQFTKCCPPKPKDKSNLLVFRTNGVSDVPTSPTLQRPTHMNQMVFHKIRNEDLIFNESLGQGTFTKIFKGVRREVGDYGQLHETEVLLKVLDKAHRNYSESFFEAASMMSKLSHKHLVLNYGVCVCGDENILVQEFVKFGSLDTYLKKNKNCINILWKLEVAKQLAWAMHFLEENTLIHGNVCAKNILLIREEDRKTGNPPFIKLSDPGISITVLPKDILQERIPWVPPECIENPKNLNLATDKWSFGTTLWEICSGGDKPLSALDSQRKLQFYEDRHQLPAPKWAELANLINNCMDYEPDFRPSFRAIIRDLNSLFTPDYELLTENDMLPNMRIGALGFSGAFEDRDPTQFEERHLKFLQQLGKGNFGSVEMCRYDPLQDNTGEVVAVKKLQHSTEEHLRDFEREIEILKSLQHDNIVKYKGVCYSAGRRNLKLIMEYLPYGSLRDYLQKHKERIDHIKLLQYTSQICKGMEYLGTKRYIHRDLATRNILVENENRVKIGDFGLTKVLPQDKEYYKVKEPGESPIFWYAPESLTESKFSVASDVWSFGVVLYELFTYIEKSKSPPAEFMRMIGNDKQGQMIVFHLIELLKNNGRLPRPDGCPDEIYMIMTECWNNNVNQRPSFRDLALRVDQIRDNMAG
Kind of experiment: Recombinant Human JAK2 Kinase Assay (TRF). In kind it is biochemical. The note with it: JAK2 kinase inhibition, 0.2 μM ATP; read-out: JAK2 Potency. Put shortly:
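Baculovirus-expressed JAK2 (15 ng/ml) phosphorylated a biotinylated 15-mer peptide captured on Neutravidin, in 20 mM HEPES pH 7.2, 0.2 μM ATP, 1 mM MnCl2, 0.1% BSA, 2.5% DMSO final, 20 min at room temperature. Phosphoproduct detected by time-resolved fluorescence with Eu-N1-labelled PY100 antibody.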

T1 sequence (Q9UM73 19-1620): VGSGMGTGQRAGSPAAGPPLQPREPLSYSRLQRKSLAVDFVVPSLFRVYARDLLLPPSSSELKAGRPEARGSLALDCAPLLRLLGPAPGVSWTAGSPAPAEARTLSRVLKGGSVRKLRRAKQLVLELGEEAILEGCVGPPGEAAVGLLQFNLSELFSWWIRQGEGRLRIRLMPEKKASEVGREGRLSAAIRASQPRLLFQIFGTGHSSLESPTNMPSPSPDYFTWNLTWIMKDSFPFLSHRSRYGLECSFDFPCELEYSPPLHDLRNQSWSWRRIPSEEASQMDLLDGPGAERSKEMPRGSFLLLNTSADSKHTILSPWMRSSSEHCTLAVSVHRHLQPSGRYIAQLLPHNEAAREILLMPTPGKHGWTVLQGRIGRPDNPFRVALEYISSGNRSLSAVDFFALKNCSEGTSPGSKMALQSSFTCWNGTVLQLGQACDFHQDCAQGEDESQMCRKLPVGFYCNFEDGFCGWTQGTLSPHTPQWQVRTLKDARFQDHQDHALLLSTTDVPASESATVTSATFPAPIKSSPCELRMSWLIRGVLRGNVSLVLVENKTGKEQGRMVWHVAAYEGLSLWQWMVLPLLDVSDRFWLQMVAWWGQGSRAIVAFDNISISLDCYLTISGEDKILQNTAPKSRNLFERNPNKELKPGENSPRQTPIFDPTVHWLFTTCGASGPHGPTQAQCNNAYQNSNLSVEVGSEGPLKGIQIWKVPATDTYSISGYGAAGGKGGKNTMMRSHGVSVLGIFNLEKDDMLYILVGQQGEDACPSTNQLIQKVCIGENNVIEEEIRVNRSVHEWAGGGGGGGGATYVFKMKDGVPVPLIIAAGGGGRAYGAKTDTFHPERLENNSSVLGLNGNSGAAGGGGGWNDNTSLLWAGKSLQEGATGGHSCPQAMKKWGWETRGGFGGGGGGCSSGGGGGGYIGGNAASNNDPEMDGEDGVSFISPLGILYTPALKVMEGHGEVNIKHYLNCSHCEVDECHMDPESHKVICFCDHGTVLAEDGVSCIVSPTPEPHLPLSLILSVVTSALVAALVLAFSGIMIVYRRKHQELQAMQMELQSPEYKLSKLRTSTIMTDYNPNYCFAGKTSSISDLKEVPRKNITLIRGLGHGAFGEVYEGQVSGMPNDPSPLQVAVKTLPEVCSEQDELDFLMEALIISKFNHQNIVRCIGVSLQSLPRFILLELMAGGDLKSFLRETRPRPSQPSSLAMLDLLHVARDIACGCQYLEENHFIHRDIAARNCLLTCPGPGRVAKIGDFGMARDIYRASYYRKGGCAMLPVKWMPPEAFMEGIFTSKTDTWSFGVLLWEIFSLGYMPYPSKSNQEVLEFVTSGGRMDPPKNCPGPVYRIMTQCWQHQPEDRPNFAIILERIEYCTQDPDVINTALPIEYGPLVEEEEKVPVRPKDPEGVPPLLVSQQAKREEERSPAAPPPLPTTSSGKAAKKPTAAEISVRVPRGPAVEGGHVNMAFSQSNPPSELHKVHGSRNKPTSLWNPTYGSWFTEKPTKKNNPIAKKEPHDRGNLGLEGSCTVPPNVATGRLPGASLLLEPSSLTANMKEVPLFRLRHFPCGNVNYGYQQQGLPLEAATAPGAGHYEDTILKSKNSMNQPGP

Regarding `COc1cc(N2CCN(C[C@@H](C)O)CC2)ccc1Nc1ncc2ccc(-c3cc(Cl)ccc3OC)n2n1` [Example 756, (R)-1-(4-{4-[7-(5-Chloro-2-methoxy-phenyl)-pyrrolo[2,1-f][1,2,4]triazin-2-ylamino]-3-methoxy-phenyl}-piperazin-1-yl)-propan-2-ol], the IC50 on ALK and on JAK2 was less than 100 nM throughout.

In the case of `COc1cc(N2CCN(C[C@@H](O)CO)CC2)ccc1Nc1ncc2ccc(-c3cc(Cl)ccc3OC)n2n1` [Example 757, (R)-3-(4-{4-[7-(5-Chloro-2-methoxy-phenyl)-pyrrolo[2,1-f][1,2,4]triazin-2-ylamino]-3-methoxy-phenyl}-piperazin-1-yl)-propane-1,2-diol], the IC50 on ALK was less than 100 nM; on JAK2, 100 to 1000 nM.

As to `COc1cc(C2CCN(C[C@H](O)CO)CC2)ccc1Nc1ncc2ccc(-c3ccccc3OC)n2n1` [Example 761, (S)-3-(4-{3-Methoxy-4-[7-(2-methoxy-phenyl)-pyrrolo[2,1-f][1,2,4]triazin-2-ylamino]-phenyl}-piperidin-1-yl)-propane-1,2-diol], the IC50 on ALK was less than 100 nM; on JAK2 it was 100 to 1000 nM.

As for `COc1cc(C2CCN(C)CC2)ccc1Nc1ncc2ccc(-c3ccccc3OC)n2n1` [Example 762, [2-Methoxy-4-(1-methyl-piperidin-4-yl)-phenyl]-[7-(2-methoxy-phenyl)-pyrrolo[2,1-f][1,2,4]triazin-2-yl]-amine], the IC50 on ALK and on JAK2 was less than 100 nM each time.

As for `COc1cc(N2CCC(N(C)C)C2)ccc1Nc1ncc2ccc(-c3ccccc3OC)n2n1` (stereo not drawn) [Example 763, [4-(3-Dimethylamino-pyrrolidin-1-yl)-2-methoxy-phenyl]-[7-(2-methoxy-phenyl)-pyrrolo[2,1-f][1,2,4]triazin-2-yl]-amine], the IC50 at ALK and at JAK2 was less than 100 nM throughout.

Regarding `COc1ccccc1-c1ccc2cnc(Nc3ccc4c(c3)N3CCC4CC3)nn12` [Example 764, (3,4-Dihydro-2H-1,4-ethano-quinolin-7-yl)-[7-(2-methoxy-phenyl)-pyrrolo[2,1-f][1,2,4]triazin-2-yl]-amine], the IC50 at ALK and on JAK2 was less than 100 nM throughout.

Turning to `COc1cc(N2CCCN(C)CC2)ccc1Nc1ncc2ccc(-c3ccccc3OC)n2n1` [Example 765, [2-Methoxy-4-(4-methyl-[1,4]diazepan-1-yl)-phenyl]-[7-(2-methoxy-phenyl)-pyrrolo[2,1-f][1,2,4]triazin-2-yl]-amine], the IC50 on ALK is less than 100 nM; at JAK2, 100 to 1000 nM.

With `COc1cc(N2CCCN(C[C@@H](C)O)CC2)ccc1Nc1ncc2ccc(-c3ccccc3OC)n2n1` [Example 766, (R)-1-(4-{3-Methoxy-4-[7-(2-methoxy-phenyl)-pyrrolo[2,1-f][1,2,4]triazin-2-ylamino]-phenyl}-[1,4]diazepan-1-yl)-propan-2-ol], the IC50 on ALK and at JAK2 was less than 100 nM in each case.

For `COc1cc(C2CCN(C[C@H](O)CO)CC2)ccc1Nc1ncc2ccc(-c3ccccc3N(C)S(C)(=O)=O)n2n1` [Example 769, N-[2-(2-{4-[1-((S)-2,3-Dihydroxy-propyl)-piperidin-4-yl]-2-methoxy-phenylamino}-pyrrolo[2,1-f][1,2,4]triazin-7-yl)-phenyl]-N-methyl-methanesulfonamide], the IC50 on ALK is less than 100 nM; on JAK2, 100 to 1000 nM.

Turning to `COc1cc(N2CCCN(C)CC2)ccc1Nc1ncc2ccc(-c3ccccc3N(C)S(C)(=O)=O)n2n1` [Example 771, N-(2-{2-[2-Methoxy-4-(4-methyl-[1,4]diazepan-1-yl)-phenylamino]-pyrrolo[2,1-f][1,2,4]triazin-7-yl}-phenyl)-N-methyl-methanesulfonamide], the IC50 on ALK was less than 100 nM; on JAK2, 100 to 1000 nM.

Consider `COc1cc(N2CCCN(C[C@@H](C)O)CC2)ccc1Nc1ncc2ccc(-c3ccccc3N(C)S(C)(=O)=O)n2n1` [Example 772, N-[2-(2-{4-[4-((R)-2-Hydroxy-propyl)-[1,4]diazepan-1-yl]-2-methoxy-phenylamino}-pyrrolo[2,1-f][1,2,4]triazin-7-yl)-phenyl]-N-methyl-methanesulfonamide], for which the IC50 at ALK is less than 100 nM; on JAK2 it was 100 to 1000 nM.

Consider `COc1cc(N2CCCN(C[C@H](O)CO)CC2)ccc1Nc1ncc2ccc(-c3ccccc3N(C)S(C)(=O)=O)n2n1` [Example 773, N-[2-(2-{4-[4-((S)-2,3-Dihydroxy-propyl)-[1,4]diazepan-1-yl]-2-methoxy-phenylamino}-pyrrolo[2,1-f][1,2,4]triazin-7-yl)-phenyl]-N-methyl-methanesulfonamide], for which the IC50 on ALK was less than 100 nM; at JAK2, 100 to 1000 nM.

Turning to `COc1ccc(C2CCN(C)CC2)cc1Nc1ncc2ccc(-c3ccccc3N(C)S(C)(=O)=O)n2n1` [Example 774, N-(2-{2-[2-Methoxy-5-(1-methyl-piperidin-4-yl)-phenylamino]-pyrrolo-[2,1-f][1,2,4]triazin-7-yl}-phenyl)-N-methyl-methanesulfonamide], the IC50 was less than 100 nM on ALK and 100 to 1000 nM at JAK2.

In the case of `COc1ccccc1-c1ccc2cnc(Nc3cccc(C4CCN(C)CC4)c3OC)nn12` [Example 775, [2-Methoxy-3-(1-methyl-piperidin-4-yl)-phenyl]-[7-(2-methoxy-phenyl)-pyrrolo[2,1-f][1,2,4]triazin-2-yl]-amine], the IC50 on ALK and at JAK2 was less than 100 nM in each case.

Take `COc1c(Nc2ncc3ccc(-c4ccccc4N(C)S(C)(=O)=O)n3n2)cccc1C1CCN(C)CC1` [Example 776, N-(2-{2-[2-Methoxy-3-(1-methyl-piperidin-4-yl)-phenylamino]-pyrrolo [2,1-f][1,2,4]triazin-7-yl}-phenyl)-N-methyl-methanesulfonamide]: the IC50 on ALK and on JAK2 was less than 100 nM each time.

As for `COc1cc(N2CCC(N3CCCOCC3)CC2)ccc1Nc1ncc2ccc(-c3ccccc3OC)n2n1` [Example 780, [2-Methoxy-4-(4-[1,4]oxazepan-4-yl-piperidin-1-yl)-phenyl]-[7-(2-methoxy-phenyl)-pyrrolo[2,1-f][1,2,4]triazin-2-yl]-amine], the IC50 on ALK and at JAK2 was less than 100 nM in each case.

Turning to `COc1cc(N2CCC(N3CCCN(C)CC3)CC2)ccc1Nc1ncc2ccc(-c3ccccc3OC)n2n1` [Example 781, {2-Methoxy-4-[4-(4-methyl-[1,4]diazepan-1-yl)-piperidin-1-yl]-phenyl}-[7-(2-methoxy-phenyl)-pyrrolo[2,1-f][1,2,4]triazin-2-yl]-amine], the IC50 on ALK and at JAK2 was less than 100 nM throughout.

Take `COc1cc(N2CCC(N3CCCOCC3)CC2)ccc1Nc1ncc2ccc(-c3ccccc3N(C)S(C)(=O)=O)n2n1` [Example 783, N-(2-{2-[2-Methoxy-4-(4-[1,4]oxazepan-4-yl-piperidin-1-yl)-henylamino]-pyrrolo[2,1-f][1,2,4]triazin-7-yl}-phenyl)-N-methyl-methanesulfonamide]: the IC50 is less than 100 nM on ALK and 100 to 1000 nM on JAK2.

Regarding `COc1cc(N2CCC(N3CCCN(C)CC3)CC2)ccc1Nc1ncc2ccc(-c3ccccc3N(C)S(C)(=O)=O)n2n1` [Example 784, N-[2-(2-{2-Methoxy-4-[4-(4-methyl-[1,4]diazepan-1-yl)-piperidin-1-yl]-phenylamino}-pyrrolo[2,1-f][1,2,4]triazin-7-yl)-phenyl]-N-methyl-methanesulfonamide], the IC50 at ALK was less than 100 nM; on JAK2, 100 to 1000 nM.

As to `COc1cc(C2CCN(C[C@H](Oc3ncc4ccc(-c5ccccc5N(C)S(C)(=O)=O)n4n3)C(F)(F)F)CC2)ccc1N` [Example 785, N-[2-(2-{(S)-1-[4-(4-Amino-3-methoxy-phenyl)-piperidin-1-ylmethyl]-2,2,2-trifluoro-ethoxy}-pyrrolo[2,1-f][1,2,4]triazin-7-yl)-phenyl]-N-methyl-methanesulfonamide], the IC50 on ALK and at JAK2 was greater than 10000 nM throughout.

In the case of `COc1cc(C2CCN(C[C@H](Oc3ncc4ccc(-c5ccccc5OC)n4n3)C(F)(F)F)CC2)ccc1N` [Example 786, 2-Methoxy-4-(1-{(S)-3,3,3-trifluoro-2-[7-(2-methoxy-phenyl)-pyrrolo[2,1-f][1,2,4]triazin-2-yloxy]-propyl}-piperidin-4-yl)-phenylamine], the IC50 on ALK and on JAK2 was greater than 10000 nM throughout.

As for `COc1cc(C2CCN(C[C@@H](C)O)CC2)ccc1Nc1ncc2ccc(-c3ccccc3OC)n2n1` [Example 787, (R)-1-(4-{3-Methoxy-4-[7-(2-methoxy-phenyl)-pyrrolo[2,1-f][1,2,4]triazin-2-ylamino]-phenyl}-piperidin-1-yl)-propan-2-ol], the IC50 on ALK is less than 100 nM; at JAK2, 100 to 1000 nM.

For `COc1cc(C2CCN(C[C@@H](C)O)CC2)ccc1Nc1ncc2ccc(-c3ccccc3N(C)S(C)(=O)=O)n2n1` [Example 788, N-[2-(2-{4-[1-((R)-2-Hydroxy-propyl)-piperidin-4-yl]-2-methoxy-phenylamino}-pyrrolo[2,1-f][1,2,4]triazin-7-yl)-phenyl]-N-methyl-methanesulfonamide], the IC50 on ALK was less than 100 nM; on JAK2, 100 to 1000 nM.

In the case of `COc1cc(N2CCCN(C3CCN(C)CC3)CC2)ccc1Nc1ncc2ccc(-c3ccccc3OC)n2n1` [Example 789, {2-Methoxy-4-[4-(1-methyl-piperidin-4-yl)-[1,4]diazepan-1-yl]-phenyl}-[7-(2-methoxy-phenyl)-pyrrolo[2,1-f][1,2,4]triazin-2-yl]-amine], the IC50 at ALK is less than 100 nM; at JAK2, 100 to 1000 nM.
